For 25 molecules, EC50 results are on record in patent US20220169660A1, “CYCLIC AMINO-PYRAZINECARBOXAMIDE COMPOUNDS AND USES THEREOF” (SILVERBACK THERAPEUTICS, INC., priority 2019, published 2022).

Experiment [1] relates to TGFβ/SMAD Singling Pathway SBE reporter cell line. The experiment in a line: TGFβ reporter assay (in vitro small molecule screening). In kind it is cell-based. To be noted: SBE luciferase reporter cells, TGFβ stimulation, 18 h, luminescence. The protocol: TGFβ/SMAD Singling Pathway SBE reporter cell line was obtained from BPS Bioscience. Cells were passed, expanded, and stored in liquid nitrogen as per the supplier's instructions with the exception that growth media is changed to DMEM-C with Geneticin (DMEM supplemented with 10% fetal bovine serum, 1×NEAA, 1 mM Pyruvate, 2 mM glutamine, 50 μg/mL penicillin, 50 U/mL streptomycin and 400 μg/mL of Geneticin). The assay media was MEM supplemented with […] fetal bovine serum, 1×NEAA, 1 mM Pyruvate, 50 μg/mL penicillin and 50 U/mL streptomycin.
Test samples (at desired concentrations diluted in assay media) were added to a 96-well assay plate, 20 μL per well. Reporter cells were harvested from the tissue culture flasks by incubation in small quantity of PBS at 37° C. for two minutes after the media in the flask is removed and cells rinsed with PBS. Cells were counted and diluted in the assay media at approximately 0.5×10^6 cells/mL and then 80 μL/well of cells were added to the assay plate containing the 20 μL/well of test samples (or media only), and incubated for approximately 5-6 hours at 37° C. in a 5% CO2 humidified incubator. After that time, 15 μL of TGFβ diluted to 12 ng/mL in the assay media was added to the plate. Controls included TGFβ titration (from 50 to 0 ng/mL) without inhibitors, and media only (without cells, inhibitor or TGFβ). Plates were incubated at 37° C. in a 5% CO2 humidified incubator for 18 h. Luciferase substrate solution is subsequently added at 100 μL per well, incubated in the dark at room temperature for 15 min, and luminescence is measured using a luminometer. EC50 values and curve fits were obtained using Prism (GraphPad Software).

Another experiment concerns the target T1, TGFBR2 (Homo sapiens, UniProt P37173).
T1 construct: purchased Reaction Biology Corp
Kind of experiment: TGFBR2 RBC enzyme assay (Reaction Biology Corp.). The class given is biochemical. The protocol: Compounds of the disclosure were assayed by Reaction Biology Corp. using the TGFBR2 RBC enzyme assay.

T1 sequence (P37173 23-567): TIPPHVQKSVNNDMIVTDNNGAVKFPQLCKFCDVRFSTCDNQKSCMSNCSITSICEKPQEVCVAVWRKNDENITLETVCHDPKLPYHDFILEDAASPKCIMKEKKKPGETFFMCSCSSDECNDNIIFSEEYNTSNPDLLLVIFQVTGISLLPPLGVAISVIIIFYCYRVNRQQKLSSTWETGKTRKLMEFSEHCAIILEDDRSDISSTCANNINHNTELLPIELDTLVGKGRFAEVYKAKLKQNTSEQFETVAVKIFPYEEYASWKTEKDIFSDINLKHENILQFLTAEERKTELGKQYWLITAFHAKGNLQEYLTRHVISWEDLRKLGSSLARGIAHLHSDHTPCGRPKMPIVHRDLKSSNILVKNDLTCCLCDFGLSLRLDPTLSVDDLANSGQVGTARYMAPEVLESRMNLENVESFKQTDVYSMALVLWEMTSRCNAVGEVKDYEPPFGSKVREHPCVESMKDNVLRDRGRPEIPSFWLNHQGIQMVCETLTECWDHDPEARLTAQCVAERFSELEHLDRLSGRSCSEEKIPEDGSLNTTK

As for `CC(C)(C)OC(=O)N1C[C@@H]2C[C@@H]1COc1cccc(c1)-c1cnc(N)c(n1)C(=O)Nc1cnccc1O2` (racemic) [Compound 35, (±)-tert-butyl(5^2,5^4-trans)-1^5-amino-9-oxo-3,6-dioxa-8-aza-1(2,6)-pyrazina-7(4,3)-pyridina-5(2,4)-pyrrolidina-2(1,3)-benzenacyclononaphane-51-carboxylate], the values for the EC50 (in experiment [1]; on TGFBR2) were > 5000 nM and > 1000 nM, respectively. Taken in the same sequence, the figures for `Nc1ncc2nc1C(=O)Nc1cnccc1O[C@@H]1CN[C@@H](COc3cccc-2c3)C1` (racemic) [Compound 36, (±)-(5^2,5^4-trans)-1^5-amino-3,6-dioxa-8-aza-1(2,6)-pyrazina-7(4,3)-pyridina-5(2,4)-pyrrolidina-2(1,3)-benzenacyclononaphan-9-one] were > 5000 nM and > 1000 nM. As for `CC(C)(C)OC(=O)N1C[C@@H]2C[C@H]1COc1cccc(c1)-c1cnc(N)c(n1)C(=O)Nc1cnccc1O2` (racemic) [Compound 37, (±)-tert-butyl(5^2,5^4-cis)-1^5-amino-9-oxo-3,6-dioxa-8-aza-1(2,6)-pyrazina-7(4,3)-pyridina-5(2,4)-pyrrolidina-2(1,3)-benzenacyclononaphane-51-carboxylate], the EC50 in experiment [1] lay in the range of 1 to 1000 nM; at TGFBR2, 100 to 1000 nM. On the same counts, the results for `Nc1ncc2nc1C(=O)Nc1cnccc1O[C@@H]1CN[C@H](COc3cccc-2c3)C1` (racemic) [Compound 38, (±)-(5^2,5^4-cis)-1^5-amino-3,6-dioxa-8-aza-1(2,6)-pyrazina-7(4,3)-pyridina-5(2,4)-pyrrolidina-2(1,3)-benzenacyclononaphan-9-one] are 1 to 1000 nM and 1 to 100 nM. Turning to `CC(C)(C)OC(=O)N1C[C@H]2C[C@H]1COc1ccncc1NC(=O)c1nc(cnc1N)-c1cccc(c1)O2` (racemic) [Compound 39, (±)-tert-butyl(4^3,4^5-trans)-1^5-amino-9-oxo-3,6-dioxa-8-aza-1(2,6)-pyrazina-7(4,3)-pyridina-4(3,5)-pyrrolidina-2(1,3)-benzenacyclononaphane-41-carboxylate], the figures for the EC50 (in experiment [1]; on TGFBR2) were > 5000 nM and > 1000 nM, respectively. Taken in the same sequence, the figures for `Nc1ncc2nc1C(=O)Nc1cnccc1OC[C@@H]1C[C@H](CN1)Oc1cccc-2c1` (racemic) [Compound 40, (±)-(4^3,4^5-trans)-1^5-amino-3,6-dioxa-8-aza-1(2,6)-pyrazina-7(4,3)-pyridina-4(3,5)-pyrrolidina-2(1,3)-benzenacyclononaphan-9-one] were 1000 to 5000 nM and > 1000 nM.

Molecule `CC(C)(C)OC(=O)N1C[C@@H]2C[C@H]1COc1ccncc1NC(=O)c1nc(cnc1N)-c1cccc(c1)O2` (racemic) [Compound 41, (±)-tert-butyl(4^3,4^5-cis)-1^5-amino-9-oxo-3,6-dioxa-8-aza-1(2,6)-pyrazina-7(4,3)-pyridina-4(3,5)-pyrrolidina-2(1,3)-benzenacyclononaphane-41-carboxylate] yielded an EC50 in experiment [1] of 1 to 1000 nM. For `Nc1ncc2nc1C(=O)Nc1cnccc1OC[C@@H]1C[C@@H](CN1)Oc1cccc-2c1` (racemic) [Compound 42, (±)-(4^3,4^5-cis)-1^5-amino-3,6-dioxa-8-aza-1(2,6)-pyrazina-7(4,3)-pyridina-4(3,5)-pyrrolidina-2(1,3)-benzenacyclononaphan-9-one], the figures for the EC50 (in experiment [1]; at TGFBR2) were 1 to 1000 nM and 100 to 1000 nM, respectively. On the same counts, the results for `Nc1ncc2nc1C(=O)Nc1cnccc1NCCOCCOCCOc1cccc-2c1` [Compound 1, 2^5-amino-9,12,15-trioxa-4,6-diaza-2(2,6)-pyrazina-5(3,4)-pyridina-1(1,3)-benzenacyclopentadecaphan-3-one] are > 5000 nM and > 1000 nM. Take `Nc1ncc2nc1C(=O)Nc1cnccc1NCCCCOc1cccc-2c1` [Compound 2, 2^5-amino-11-oxa-4,6-diaza-2(2,6)-pyrazina-5(3,4)-pyridina-1(1,3)-benzenacycloundecaphan-3-one]: the EC50 in experiment [1] is > 5000 nM; at TGFBR2 it was > 1000 nM. Taken in the same sequence, the figures for `Nc1ncc2nc1C(=O)Nc1cnccc1NCCCCCOc1cccc-2c1` [Compound 3, 2^5-amino-12-oxa-4,6-diaza-2(2,6)-pyrazina-5(3,4)-pyridina-1(1,3)-benzenacyclododecaphan-3-one] were > 5000 nM and > 1000 nM.

Consider `Nc1ncc2nc1C(=O)Nc1cnccc1NCCCOc1cccc-2c1` [Compound 4, 2^5-amino-10-oxa-4,6-diaza-2(2,6)-pyrazina-5(3,4)-pyridina-1(1,3)-benzenacyclodecaphan-3-one], for which the EC50 was in the range of 1 to 1000 nM in experiment [1] and 1 to 100 nM on TGFBR2. On the same counts, the results for `CN1CCCCOc2cccc(c2)-c2cnc(N)c(n2)C(=O)Nc2cnccc21` [Compound 5, 2^5-amino-6-methyl-11-oxa-4,6-diaza-2(2,6)-pyrazina-5(3,4)-pyridina-1(1,3)-benzenacycloundecaphan-3-one] are 1 to 1000 nM and 1 to 100 nM. As for `CN1CCCOc2cccc(c2)-c2cnc(N)c(n2)C(=O)Nc2cnccc21` [Compound 6, 2^5-amino-6-methyl-10-oxa-4,6-diaza-2(2,6)-pyrazina-5(3,4)-pyridina-1(1,3)-benzenacyclodecaphan-3-one], the EC50 in experiment [1] fell in the range of 1 to 1000 nM; on TGFBR2, 1 to 100 nM. In the case of `Nc1ncc2nc1C(=O)Nc1cnccc1NCCOCCOCCOCCOc1cccc-2c1` [Compound 7, 2^5-amino-9,12,15,18-tetraoxa-4,6-diaza-2(2,6)-pyrazina-5(3,4)-pyridina-1(1,3)-benzenacyclooctadecaphan-3-one], the EC50 is > 5000 nM in experiment [1] and > 1000 nM at TGFBR2. Taken in the same sequence, the figures for `Nc1ncc2nc1C(=O)Nc1cnccc1N1CCOC(COc3cccc-2c3)C1` (stereo not drawn) [Compound 8, 5^3-amino-7-oxa-3-aza-1(4,2)-morpholina-5(2,6)-pyrazina-2(4,3)-pyridina-6(1,3)-benzenacyclooctaphan-4-one] were 1000 to 5000 nM and 100 to 1000 nM. With `CN1CCCCCOc2cccc(c2)-c2cnc(N)c(n2)C(=O)Nc2cnccc21` [Compound 9, 2^5-amino-6-methyl-12-oxa-4,6-diaza-2(2,6)-pyrazina-5(3,4)-pyridina-1(1,3)-benzenacyclododecaphan-3-one], the EC50 lay in the range of 1 to 1000 nM in experiment [1] and 1 to 100 nM on TGFBR2. On the same counts, the results for `Cc1cc2cc(c1)-c1cnc(N)c(n1)C(=O)Nc1cnccc1N(C)CCCO2` [Compound 10, 2^5-amino-1^5,6-dimethyl-10-oxa-4,6-diaza-2(2,6)-pyrazina-5(3,4)-pyridina-1(1,3)-benzenacyclodecaphan-3-one] are 1 to 1000 nM and 1 to 100 nM. Taken in the same sequence, the figures for `CN1CCOc2cccc(c2)-c2cnc(N)c(n2)C(=O)Nc2cnccc21` [Compound 11, 2^5-amino-6-methyl-9-oxa-4,6-diaza-2(2,6)-pyrazina-5(3,4)-pyridina-1(1,3)-benzenacyclononaphan-3-one] were 1 to 1000 nM and 1 to 100 nM. Taken in the same sequence, the figures for `Cc1ccc2cc1OCCCN(C)c1ccncc1NC(=O)c1nc-2cnc1N` [Compound 12, 2^5-amino-1^4,6-dimethyl-10-oxa-4,6-diaza-2(2,6)-pyrazina-5(3,4)-pyridina-1(1,3)-benzenacyclodecaphan-3-one] were 1 to 1000 nM and 1 to 100 nM. As for `CCN1CCCOc2cccc(c2)-c2cnc(N)c(n2)C(=O)Nc2cnccc21` [Compound 13, 2^5-amino-6-ethyl-10-oxa-4,6-diaza-2(2,6)-pyrazina-5(3,4)-pyridina-1(1,3)-benzenacyclodecaphan-3-one], the figures for the EC50 (in experiment [1]; at TGFBR2) were 1 to 1000 nM and 100 to 1000 nM, respectively. `Nc1ncc2nc1C(=O)Nc1cnccc1N1CCC(CCOc3cccc-2c3)C1` (stereo not drawn) [Compound 24, 2^5-amino-9-oxa-4-aza-2(2,6)-pyrazina-5(3,4)-pyridina-6(1,3)-pyrrolidina-1(1,3)-benzenacyclononaphan-3-one]: the EC50 in experiment [1] was > 5000 nM. The same measure, in the same setting: for `CN1CCCC(=O)Nc2cccc(c2)-c2cnc(N)c(n2)C(=O)Nc2cnccc21` [Compound 28, 2^5-amino-6-methyl-4,6,11-triaza-2(2,6)-pyrazina-5(3,4)-pyridina-1(1,3)-benzenacycloundecaphane-3,10-dione] the value was > 5000 nM; for `Nc1ncc2nc1C(=O)Nc1cnccc1S(=O)(=O)CCCOc1ccc(Br)c-2c1` [Compound 52, 2^5-amino-1^6-bromo-10-oxa-6-thia-4-aza-2(2,6)-pyrazina-5(3,4)-pyridina-1(1,3)-benzenacyclodecaphan-3-one 6,6-dioxide], > 5000 nM.

In the case of `CN1CCCN(C)c2ccncc2NC(=O)c2nc(cnc2N)-c2ccc(OCCCN)c(c2)C1=O` [Compound 54, 2^5-amino-1^4-(3-aminopropoxy)-6,10-dimethyl-4,6,10-triaza-2(2,6)-pyrazina-5(3,4)-pyridina-1(1,3)-benzenacycloundecaphane-3,11-dione], the EC50 in experiment [1] is > 5000 nM.

As usually defined, the EC50 is the concentration giving half of the maximal effect.
